{"source": "patent US4849227A", "about": "“Pharmaceutical compositions” (Eurasiam Laboratories, Inc., priority 1987, dated 1989)", "key": {"[1]": {"tested_on": "blood sugar (hypoglycemic effect)", "assay": "Test 1-D: intravenous rabbit bioassay", "assay_type": "in vivo, white rabbits", "settings": "rabbits, 4 I.U. i.v.; after completion of the infusion", "procedure": "FIG. 8 is a comparison of Tong-Shin insulin, the oral insulin of Example 1, and Novo insulin, pursuant to the test of Test 1-D.\nIn this test, the oral insulin composition of Example 1 was compared with Novo monocomponent porcine crystalline insulin and a regular injectable insulin-40 (Tong-Shin Pharmaceutical Co.) in intravenous rabbit bioassays. Three white rabbits, each weighing 1.8 Kg were fasted overnight and were treated with an intravenous infusion over ten minutes of 4 I.U. of either the Novo insulin, the Tong-Shin insulin-40, or an emulsion comprising the oral insulin composition of Example 1. A venous blood sample was collected from the ear vein of each of the rabbits at 30 minutes prior to the insulin infusion and at times 0, 15, 30, 45, 60, 75, 90 and 105 minutes after completion of the infusions."}, "[2]": {"tested_on": "blood glucose levels", "assay": "Test 1-E: oral insulin in healthy male volunteers, blood glucose", "assay_type": "in vivo, human", "procedure": "In this test, the oral insulin composition of Example 1 was administered orally to two healthy male volunteers.\nTwo healthy volunteers, weighing 52 and 54 Kg participated in the study. Each subject received a 16 I.U. dose of the oral insulin composition of Example 1 during the study. Along with the oral insulin composition of Example 1, each participant received two capsules of lipolytic enzymes. Each capsule consisted of:\nThe enzyme capsules were made as follows: Pancreatic Lipase was coated with 0.1 to 0.3 microns thick coating of hydroxypropylecellulose and enteric coated with the coating of Example 1. Amylase and Protease were then added. The resultant composition was then coated with 0.1 micron of hydroxypropylcellulose. Bile Salts that had been coated with 0.1 micron of hydroxypropylcellulose was then added to a hard gel capsule with the Pancreatic Lipase resultant product.\nAt 7:30 am on the day of the trial, each participant consumed a standard breakfast consisting of two fried eggs, two strips of bacon, two slices of toasted dark bread, a tablespoon of butter, and cup of black coffee. The insulin composition of Example 1 was administered orally at 10:00 am to both subjects. The oral insulin was administered in capsules comprising 16 I.U. of Novo crystalline monocomponent porcine insulin. At 12:00 both subjects consumed a standard lunch consisting of 180 gm of beef steak, a tossed green salad with oil and vinegar dressing, a piece of dark bread, and black coffee.\nBlood samples were collected from the subject at 10:00, 13:00 and 16:00 and were analyzed for blood glucose levels.\nOne week later, both volunteers had the standard breakfast (i.e., the breakfast given on the first day of the test) at the same time. At 10:00 both subjects received a subcutaneous injection of 16 I.U. of Tong-Shin regular injectable insulin-40. At approximately 10:30 both subjects began to experience hypoglycemic reactions which lasted for roughly two hours. Both subjects were served pure orange juice at 11:20 and were served the standard lunch at 12:00."}, "[3]": {"assay": "Test 8: bioavailability of insulin (insulin levels in serum)", "assay_type": "in vivo, human", "settings": "Reg. Insulin 0.172 IU/Kg s.c.; Oral Insulin 0.630 IU/Kg; IDDM", "procedure": "In two IDDM patients, bioavailability of insulin (insulin levels in serum) was measured after oral administration of Oral Insulin Formulation of Example 7 (0.63 I.U./Kg).\nCompared to 0.172 IU/Kg of Regular Insulin, subcutaneous injection in 5 IDDM patients, the `pharmacokinetic and bioavailability` of insulin are as follows:\n(§1) Each subject in Test 8 was given two capsules of the lipolytic enzyme composition set forth in Test 1-E with each dose of oral insulin."}, "[4]": {"tested_on": "serum glucose levels", "assay": "Test 8: serum glucose in IDDM patients", "assay_type": "in vivo, human", "settings": "Regular Insulin 0.172 IU/Kg s.c., Oral Insulin 0.649 IU/Kg", "description": "Seven Insulin-Dependent Diabetics (IDDM) patients, 6 males and one person, between 24 to 47 years old (average 34.4) weighing between 48 and 68 Kg each (average 58.6 kg) took between 32 to 48 (average 42.6) International Units of Oral Insulin Formulation of Example 7, orally, after fasting overnight and fasting throughout the study.\nas §1"}, "[5]": {"assay": "Test 5-A: bioavailability of insulin (serum insulin)", "assay_type": "in vivo, human", "settings": "Regular Insulin 0.172 IU/Kg s.c.; Example 4 0.544 IU/Kg oral 1st dose; Example 5 0.649 IU/Kg oral 1st, fasting", "procedure": "(§2) The bioavailability of insulin and its corresponding hypoglycemic effects of Example 4 and Example 5 oral insulin preparations were studied in a group of IDDM and NIDDM patients. Example 4 oral insulin was also studied in two normal, healthy male volunteers. In all of the tests set forth in 5-A, the subjects received with each dose of oral insulin two capsules of the lipolytic enzyme of Test 1-E.\n(§3) At least 12 or 24 hours prior to the study the patients normal anti-diabetic therapeutic agents were withheld from the patients. After overnight fasting and fasting throughout the entire period of the study, Example 4 or Example 5 oral insulin preparations were orally administered.\n(§4) A venous sampling catheter was placed into a vein, usually at the antecubital vein, and blood samples were drawn at time 0, 1.0, 1.5, 2.0, 2.5, 3.0, 4.0 and/or 5.0 hours after the drug administration. Serum glucose was measured on a Gilfordx400, and serum insulin was analyzed by using an Immuno-Enzymatic o-Phenylendiamine (OPD) method and Insulin-B test kit of WAKO (Japan). All measurements were made in duplicate.\n(§5) As stated above, two healthy male volunteers […] participated in the study. One subject received the oral insulin of Example 4 twice over a two week period, once each week, receiving 0.20 and 0.27 IU per Kg of the oral insulin. […] Serum insulin level was peaked to 20 micro-U per ml occurring at 1.5 hours after the drug ingestion on both occasions.\n(§6) Five IDDM Patients have completed all three phases of the study of test 5-A: i.e., they received 10 IU, subcutaneous injection of regular injectable insulin-40 (of Tong Shin Pharm Co. of Seoul, Korea) the first week; they received one single oral dosing of Example 4 (0.544 IU/kg average dose) one week later; and the next week they received 9 consecutive dosings of Example 4 (average dose was 0.544 IU/kg), given at 6-hour intervals."}, "[6]": {"tested_on": "serum glucose", "assay": "Test 5-A: hypoglycemic effects (serum glucose)", "assay_type": "in vivo, human", "procedure": "as §2, §3, §4, §5\nThe second volunteer received 10 IU of regular injectable insulin-40 (of Tong Shin Pharm. Co. of Seoul, Korea), subcutaneously. […] They were given a glass of fresh orange juice and serum glucose level rose to about 115 mg/dl within one hour.\nas §6\nThe Oral Insulin Example 4 was given to a total of 8 IDDM patients (10 trials) (two repeated the study) and 7 NIDDM patients (11 trials) (four patients repeated the study).\nSeven IDDM Patients completed the study after oral administration of a single dose of the Example 5 oral insulin preparation."}, "[7]": {"settings": "cited from earlier work"}, "[8]": {"tested_on": "blood sugar level", "settings": "oral with surfactants; cited from earlier work"}, "[9]": {"tested_on": "hypoglycemic effect", "settings": "other emulsion systems with fat soluble vitamins, dogs; cited from earlier work"}, "[10]": {"tested_on": "hypoglycemic effect", "settings": "water/oil/water emulsion, rats; cited from earlier work"}, "[11]": {"tested_on": "hypoglycemic response", "settings": "oral with pancreas inactivating agents; cited from earlier work"}, "[12]": {"tested_on": "hypoglycemic effect", "settings": "oral with isopropylfruorophosphate and indole-3-acetate, rats; cited from earlier work"}, "[13]": {"tested_on": "hypoglycemic response", "settings": "aerosol, 2.5 U/Kg, rabbits; cited from earlier work"}, "[14]": {"settings": "buccal, cocoa fat base and surfactant, dogs; cited from earlier work"}, "[15]": {"settings": "intra-nasal, dogs; cited from earlier work"}, "[16]": {"tested_on": "hypoglycemic response", "settings": "oral, 150 IU/Kg, rabbits; cited from earlier work"}, "[17]": {"tested_on": "plasma glucose level", "assay": "Test 12B: plasma glucose in a female dog", "assay_type": "in vivo", "procedure": "Hypoglycemic action of the formulation was compared to that of intra-duodenally administered regular injectable insulin (novo actrapid insulin, 1.0 IU per Kg) and of intravenously administered regular injectable insulin (novo actrapid insulin, 0.5 IU per Kg). After infusion of 1.26 IU of regular injectable insulin, intravenously, the plasma glucose level dropped from […] within 20 minutes and returned to […] within 3 hours. Then, 6 IU of regular injectable insulin was intra-duodenally given."}, "[18]": {"tested_on": "venous serum sugar level", "assay": "Test 1-C: bioassay in pigs, serum sugar level", "assay_type": "in vivo, Yorkshire pigs", "settings": "8 I.U. intravenously", "description": "FIG. 7 is a comparison of the venous serum sugar levels of two pigs, one given the composition of Example 1 and one given Actrapid. The venous serum sugar level of the pig given Example 1 is denoted by \"o\" and the venous serum sugar level of the pig given actrapid is denoted by \"x\". The x axis is in minutes and the y axis is in millimoles of serum glucose.\nIn this test, the oral insulin composition of Example 1 was compared with Actripid intravenous insulin solution (Novo) in a bioassay. Two Yorkshire pigs were fasted overnight and one pig was given 8 I.U. of the Actripid insulin intravenously. The other pig was given an intravenous infusion over a period of 15 minutes of 8 I.U. of the oral insulin composition of Example 1 that had been dissolved into 50 ml of water. Blood was taken from the pair of pigs and the serum sugar levels were measured. […] (See FIG. 7.)"}, "[19]": {"settings": "Regular Insulin 0.172 IU/Kg s.c., Example 4 0.544 IU/Kg oral 1st dose, Example 5 0.649 IU/Kg oral 1st, fasting"}}, "note": "Like-named read-outs stand apart in the source and are kept apart here."}
{"substance": "Regular Insulin", "values": [{"measurement": "time of peak hypoglycemic effect", "setting": "[1]", "result": 60, "unit": "min"}, {"measurement": "duration of hypoglycemic reactions", "setting": "[2]; 16 I.U. subcutaneous", "result": "roughly two"}, {"measurement": "time of peak hypoglycemic effect", "setting": "[2]; 16 I.U. subcutaneous", "result": "roughly 3 hours"}, {"measurement": "blood glucose / effect after six hours", "setting": "[2]; 16 I.U., 6 hours", "result": "the effect disappeared by 6 hours after administration"}, {"measurement": "IO, base value of insulin", "setting": "[3]", "result": 8.0, "unit": "micro-U/ml"}, {"measurement": "Imax, maximum value of serum insulin", "setting": "[3]", "result": 20.3, "unit": "micro-U/ml"}, {"measurement": "TI-O, time to reach the base value of serum insulin", "setting": "[3]", "result": 4.8}, {"measurement": "TI-max, time of observing the maximum value of serum insulin", "setting": "[3]", "result": 1.5}, {"measurement": "dI/dt, rate of rise of serum insulin (absorption rate)", "setting": "[3]", "result": 38.29}, {"measurement": "CO (printed 00), base value of glucose", "setting": "[4]", "result": 271, "unit": "Mg/dl"}, {"measurement": "Cmin, minimum value of glucose observed", "setting": "[4]", "result": 94.5, "unit": "Mg/dl"}, {"measurement": "T100, time to reach 100 mg/dl", "setting": "[4]", "result": 2.1}, {"measurement": "TC-min, time of observing the minimum glucose level", "setting": "[4]", "result": 4.0}, {"measurement": "dC/dT, rate of hypoglycemic action", "setting": "[4]", "result": 59.16}, {"measurement": "IO, base value of Serum Insulin", "setting": "[5]", "result": 8.0, "unit": "micro-U/ml"}, {"measurement": "Imax, maximum value of insulin", "setting": "[5]", "result": 20.3, "unit": "micro-U/ml"}, {"measurement": "TI-O, time to reach the base value of Serum Insulin level", "setting": "[5]", "result": 4.8}, {"measurement": "TI-max, time to reach the maximum Serum insulin level", "setting": "[5]", "result": 1.5}, {"measurement": "dI/dT, rate of rise of serum insulin level", "setting": "[5]", "result": 38.29}, {"measurement": "CO, base value of Serum Glucose", "setting": "[6]; [19]", "result": 271, "unit": "mg/dL"}, {"measurement": "Cmin, minimum value of glucose", "setting": "[6]; [19]", "result": 94.5, "unit": "mg/dL"}, {"measurement": "T100, time to reach 100 mg/dl of serum glucose", "setting": "[6]; [19]", "result": 2.1}, {"measurement": "TC-min, time of observing the minimum glucose level", "setting": "[6]; [19]", "result": 4.0}, {"measurement": "dC/dT, rate of reduction in Serum Glucose levels", "setting": "[6]; [19]", "result": 59.16}, {"measurement": "time of insulin-induced shock symptoms", "setting": "[6]; healthy volunteer, 10 IU subcutaneous", "result": 72, "unit": "min"}, {"measurement": "serum glucose at time of shock symptoms", "setting": "[6]; healthy volunteer, 10 IU subcutaneous, 72 minutes", "result": 47, "unit": "mg/dL"}, {"measurement": "serum glucose after orange juice", "setting": "[6]; healthy volunteer, 10 IU subcutaneous, within one hour of orange juice", "result": "about 115 mg/dl"}]}
{"substance": "Novo insulin: Novo monocomponent porcine crystalline insulin", "values": [{"measurement": "time of peak hypoglycemic effect", "setting": "[1]", "result": "≤ 30", "unit": "min"}]}
{"substance": "insulin", "values": [{"measurement": "bioactivity after oral administration", "setting": "[7]", "result": "low bioactivities"}, {"measurement": "intravenous dose with effect on blood sugar equivalent to 35 units orally", "setting": "[8]", "result": 4, "unit": "units"}, {"measurement": "hypoglycemic effects", "setting": "[9]", "result": "mild and not dose responsive"}, {"measurement": "intramuscular dose with effect equivalent to 250 IU/Kg orally", "setting": "[10]", "result": 10, "unit": "IU/Kg"}, {"measurement": "bioavailability equivalent of hypoglycemic response", "setting": "[11]", "result": 3, "unit": "%"}, {"measurement": "hypoglycemic effect", "setting": "[12]", "result": "induce a hypoglycemic effect"}, {"measurement": "hypoglycemic response", "setting": "[13]", "result": "induced hypoglycemic response"}, {"measurement": "bioavailability", "setting": "[14]", "result": "only poor bioavailability"}, {"measurement": "bioavailability", "setting": "[15]", "result": "high bioavailability"}]}
{"substance": "beta-Naphthyl-azo-Polystearryle-insulin", "values": [{"measurement": "hypoglycemic response", "setting": "[16]", "result": "induced a hypoglycemic response"}]}
{"substance": "Actripid insulin: intravenous insulin solution (Novo)", "values": [{"measurement": "plasma glucose level before infusion", "setting": "[17]; 1.26 IU intravenous", "result": 102, "unit": "mg/dL"}, {"measurement": "plasma glucose level, return", "setting": "[17]; 1.26 IU intravenous, within 3 hours", "result": 100, "unit": "mg/dL"}, {"measurement": "change of blood glucose level", "setting": "[17]; 6 IU intra-duodenal, over three hours", "result": "No changes in the blood glucose levels"}, {"measurement": "decrease of venous serum sugar level, compared between the two insulins", "setting": "[18]", "result": "decreased by roughly an equal degree"}]}
